From US20030004126A1, “Formulations of adenosine A1 agonists” (priority 1999, published 2003)

Key:
[1] = system: Male Random Hooded rats; test: Carrageenan model: carrageenan-induced decrease in weight bearing (allodynia) and paw oedema; assay type: in vivo; settings: Compound A orally, dosed with morphine subcutaneously; rat, 3 hours after intraplantar 2% carrageenan; dual channel weight averager
Method: (a) Carrageenan Model for 5′-Deoxy-5′-fluoro-N-(tetrahydro-pyran-4-yl)-adenosine (Adenosine A1 Agonist) and Morphine
Male Random Hooded rats (180-220 g) were used. The test compound or vehicle was administered 30 mins before the 2nd test compound or vehicle. The test compounds and vehicles used were: (i) Compound A in 0.25% methyl cellulose and (ii) Morphine was made up in saline. Compound A was administered orally. Morphine was administered subcutaneously. After a further 30 mins 100 ul of 2% carrageenan was injected intraplantar into the left hind paw and the animals were then returned to their cages. Three hours later behavioural testing of the carrageenan-induced decrease in weight on the inflamed left hind paw (% weight on the inflammed left hind paw) and associated oedema was assessed. Weight bearing was measured using the dual channel weight averager and paw oedema was assessed using a plethysmometer. The dual channel weight averager is commercially available and is described in the following abstract: Validation of the dual channel weight averager as an instrument for the measurement of inflammatory pain, N. M. Clayton et al., 1997 British Journal Pharmacol. 120, 219P
Note: In the absense of pain, weight on the hind paws would be evenly distributed, i.e. 50% on each hind paw. […]

[2] = system: rats; test: Nociceptive study using an algesymeter (normal nociceptive thresholds); assay type: in vivo; settings: Compound A in combination with morphine, rat
Method: (b) Nociceptive Study for 5′-Deoxy-5′-fluoro-N-(tetrahydro-pyran4-yl)-adenosine (Adenosine A1 Agonist) and morphine
Nociception studies were carried out using an algesymeter (Randal, L et. al ([…]). Arch. Int. Pharmacodyn., 61 409-419. Variations in the rats normal nociceptive thresholds were studied.

O[C@@H]1[C@H](O)[C@@H](CF)O[C@H]1n1cnc2c(NC3CCOCC3)ncnc21 [5′-Deoxy-5′-fluoro-N-(tetrahydro-pyran-4-yl)-adenosine]
effect against the carrageenan-induced decrease in weight bearing [1]: at least an additive effect | effect on normal nociceptive levels (nociceptive threshold) [2]: significantly increased the normal nociceptive levels of the rat producing at least an additive if not synergistic effect
